Experimental findings from patent US4990521A, “4-(aroylamino)piperidine-butanimide derivatives” (Janssen Pharmaceutica, priority 1989, dated 1991) are described below.

The nature of test [1]: Ricinus Oil Test in Rats (antidiarrheal activity). The test is classed as in vivo. The note with it: compound 1 hour before 1 ml ricinus oil orally, no diarrhea in 50% of animals 1 hour after ricinus oil, fasted female Wistar rats; for ED50: Rattus norvegicus, po, 1 h; for Ricinus Oil Test ED50: oral, 60 min. An excerpt: The use of the compounds of formula (I), their N-oxide forms, pharmaceutically acceptable acid-addition salts and stereoisomeric forms thereof in the method of the present invention is based on their useful antidiarrheal activity. This property is clearly evidenced by the experimental data obtained in, for example, the "Ricinus oil Test in Rats". […] By virtue of their useful antidiarrheal activity, it is evident that the compounds of formula (I), their N-oxide forms, pharmaceutically acceptable acid addition salts and stereoisomeric forms can be used in the treatment of diarrhea.
Female Wistar rats were fasted overnight. Each animal was treated orally with a dose level of the compound to be tested. One hour thereafter, the animal received 1 ml of ricinus oil orally. Each animal was kept in an individual cage and 1 hour after the ricinus oil treatment, the presence or absence of diarrhea was noted. The ED50 value was determined as that dose in mg/kg body weight, at which no diarrhea was present in 50% of the tested animals. Said ED50 -values for the compounds of the present invention can be found in the first column of Table 1.

Test [2] can be described thus: Tail Withdrawal Test in Rats (undesired central effects). The format is in vivo. To be noted: oral, tail in 55° C. water, suppression of withdrawal response exceeding 10 seconds in 50% of animals, fasted male Wistar rats; for ED50: Rattus norvegicus. How it is done: Male Wistar rats were fasted overnight. Each animal was treated orally with a dose level of the compound to be tested. The thus treated rats Were put into individual restraining cages. At various time periods after administration, the lower 5 cm portion of the tail was immersed into a cup filled with water at a constant temperature of 55° C. The typical tail withdrawal response was evaluated during a 10 seconds period after the immersion. ED50 values in mg/kg body weight were determined as that dose of the test compound capable of suppressing in 50% of the tested animals the typical tail withdrawal response during a time period exceeding 10 seconds. Said ED50 values obtained for the compounds of the present invention are gathered in Table 1 column two.

As to `COc1cc(N)c(Cl)cc1C(=O)N[C@@H]1CCN(C(C)CC(C(=O)N(C)C)(c2ccccc2)c2ccccc2)C[C@H]1O` (relative stereo) [Compound 50, trans-4-[(4-amino-5-chloro-2-methoxybenzoyl)amino]-3-hydroxy-N,N,γ-trimethyl-α,α-diphenyl-1-piperidinebutanamide], the median effective dose (ED50) is 2.5 mg/kg in test [1] and above 40 mg/kg in test [2].
For `CO[C@@H]1CN(C(C)CC(C(=O)N(C)C)(c2ccccc2)c2ccccc2)CC[C@H]1NC(=O)c1cccc(C(F)(F)F)c1` (relative stereo) [Compound 52, trans-3-methoxy-N,N,γ-trimethyl-α,α-diphenyl-4-[[3-(trifluoromethyl)benzoyl]amino]-1-piperidinebutanamide], in that order: 2.5 mg/kg and 40 mg/kg.
Taken in the same sequence, the figures for `COc1cc(N)c(Cl)cc1C(=O)N[C@@H]1CCN(C(C)CC(C(=O)N(C)C)(c2ccccc2)c2ccccc2)C[C@H]1OC` (relative stereo) [Compound 53, trans-4-[(4-amino-5-chloro-2-methoxybenzoyl)amino]-3-methoxy-N,N,γ-trimethyl-α,α-diphenyl-1-piperidinebutanamide] were 2.5 mg/kg and around 40 mg/kg.
For `COc1cc(NC(C)=O)c(Cl)cc1C(=O)N[C@@H]1CCN(C(C)CC(C(=O)N(C)C)(c2ccccc2)c2ccccc2)C[C@H]1O` (relative stereo) [Compound 64, trans-4-[[4-(acetylamino)-5-chloro-2-methoxybenzoyl]amino]-3-hydroxy-N,N,γ-trimethyl-α,α-diphenyl-1-piperidinebutanamide], in that order: 2.5 mg/kg and above 40 mg/kg.
`CC(CC(C(=O)N(C)C)(c1ccccc1)c1ccccc1)N1CC[C@@H](NC(=O)c2ccc(F)cc2N)[C@H](O)C1.O` (relative stereo) [Compound 67, trans-4-[(2-amino-4-fluorobenzoyl)amino]-3-hydroxy-N,N,γ-trimethyl-α,α-diphenyl-1piperidinebutanamide monohydrate]: the ED50 in test [1] was below 0.04 mg/kg; in test [2], above 40 mg/kg.
Taken in the same sequence, the figures for `CC(CC(C(=O)N(C)C)(c1ccccc1)c1ccccc1)N1CC[C@@H](NC(=O)c2cccc(N)c2O)[C@H](O)C1` (relative stereo) [Compound 68, trans-4-[(3-amino-2-hydroxybenzoyl)amino]-3-hydroxy-N,N,γ-trimethyI-α,α-diphenyl-1-piperidinebutanamide] were 0.63 mg/kg and above 40 mg/kg.
For `CC(CC(C(=O)N(C)C)(c1ccccc1)c1ccccc1)N1CC[C@@H](NC(=O)c2cccc(Cl)c2N)[C@H](O)C1` (relative stereo) [Compound 69, trans-4-[(2-amino-3-chlorobenzoyl)amino]-3-hydroxy-N,N,γ-trimethyl-α,α-diphenyl-1-piperidinebutanamide], in that order: below 0.63 mg/kg and above 40 mg/kg.
For `CC(CC(C(=O)N(C)C)(c1ccccc1)c1ccccc1)N1CC[C@@H](NC(=O)c2ccc(Cl)cc2N)[C@H](O)C1` (relative stereo) [Compound 70, trans-4-[(2-amino-4-chlorobenzoyl)amino]-3-hydroxy-N,N,γ-trimethyl-α,α-diphenyl 1-piperidinebutanamide monohydrate], in that order: below 0.63 mg/kg and above 40 mg/kg.
As to `COc1cc(N)ccc1C(=O)N[C@@H]1CCN(C(C)CC(C(=O)N(C)C)(c2ccccc2)c2ccccc2)C[C@H]1O` (relative stereo) [Compound 75, trans-4[(4-amino-2-methoxybenzoyl)amino]-3-hydroxy-N,N,γ-trimethyl-α,α-diphenyl-1-piperidinebutanamide], the ED50 in test [1] was 2.5 mg/kg; in test [2], above 40 mg/kg.
`CC(CC(C(=O)N(C)C)(c1ccccc1)c1ccccc1)N1CC[C@@H](NC(=O)c2ccccc2O)[C@H](O)C1` (relative stereo) [Compound 77, trans-3-hydroxy-4-[(2-hydroxybenzoyl)-amino]-N,N,γ-trimethyl-α,α-diphenyl-1-piperidinebutanamide]: the results for the ED50 in test [1] and in test [2] were 0.16 mg/kg and at least 40 mg/kg, respectively.
Take `CC(CC(C(=O)N(C)C)(c1ccccc1)c1ccccc1)N1CCC(NC(=O)c2cccc(C(F)(F)F)c2)C(O)C1` (single isomer, unassigned; (+)) [Compound 57, (+)-(3B,trans)-3-hydroxy-N,N,γ-trimethyl-α,α-diphenyl-4-[[3-(trifluoromethyl)benzoyl]amino]-1-piperidinebutanamide]: in test [1], the “Ricinus Oil Test ED50” value turned out to be 0.31 mg/kg body weight. In addition, the ED50 in test [2] is above 160 mg/kg.
Turning to `CC(CC(C(=O)N(C)C)(c1ccccc1)c1ccccc1)N1CCC(NC(=O)c2cccc(C(F)(F)F)c2)C(O)C1` (single isomer, unassigned; (-)) [Compound 55, (-)-(3A,trans)-3-hydroxy-N,N,γ-trimethyl-α,α-diphenyl-4-[[3-(trifluoromethyl)benzoyl]amino]-1-piperidinebutanamide], in test [1], the “Ricinus Oil Test ED50” value was determined as 1.0 mg/kg body weight. Besides, the “Tail Withdrawal Test ED50” value in test [2] is listed as above 160 mg/kg body weight.
